Measured values as given in paper PMC3396595, “Identification of a Novel Calcium Binding Motif Based on the Detection of Sequence Insertions in the Animal Peroxidase Domain of Bacterial Proteins” (PLoS ONE, 2012).

Molecular target: PepA-Nter (N-terminal ANP-like domain of PepA, PP_2561) (Pseudomonas putida, UniProt Q88JT6)
Experiment: peroxidase assay, quinoneimine formation at […] nm
Format: biochemical
Settings: heme-reconstituted; electron donor with phenol; H2O2 0.25-45 mM varied; potassium phosphate pH 7.0, 25 °C

PepA-Nter (N-terminal ANP-like domain of PepA, PP_2561), sequence (Q88JT6 1-875 limits assumed): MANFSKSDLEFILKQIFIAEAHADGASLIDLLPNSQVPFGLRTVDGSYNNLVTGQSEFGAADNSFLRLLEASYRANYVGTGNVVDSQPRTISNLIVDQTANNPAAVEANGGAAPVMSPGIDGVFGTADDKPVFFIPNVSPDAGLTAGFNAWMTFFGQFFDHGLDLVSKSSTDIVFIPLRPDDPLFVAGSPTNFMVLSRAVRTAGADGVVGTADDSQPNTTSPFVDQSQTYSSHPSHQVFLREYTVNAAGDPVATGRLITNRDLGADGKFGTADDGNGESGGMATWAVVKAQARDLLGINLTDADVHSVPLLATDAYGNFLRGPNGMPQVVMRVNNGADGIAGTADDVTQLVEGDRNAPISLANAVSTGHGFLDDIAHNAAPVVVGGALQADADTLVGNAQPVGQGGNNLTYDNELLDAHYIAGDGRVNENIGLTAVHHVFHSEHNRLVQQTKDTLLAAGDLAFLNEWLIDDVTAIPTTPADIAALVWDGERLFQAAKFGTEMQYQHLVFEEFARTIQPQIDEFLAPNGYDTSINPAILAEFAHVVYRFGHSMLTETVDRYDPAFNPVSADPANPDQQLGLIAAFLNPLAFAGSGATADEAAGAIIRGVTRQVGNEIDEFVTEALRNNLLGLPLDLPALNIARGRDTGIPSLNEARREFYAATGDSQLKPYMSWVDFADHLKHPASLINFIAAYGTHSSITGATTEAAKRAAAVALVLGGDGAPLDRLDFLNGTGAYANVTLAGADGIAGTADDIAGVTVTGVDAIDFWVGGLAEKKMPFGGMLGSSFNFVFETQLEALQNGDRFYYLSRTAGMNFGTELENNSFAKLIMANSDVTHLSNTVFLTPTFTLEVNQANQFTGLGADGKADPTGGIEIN

Cc1c(N)c(=O)n(-c2ccccc2)n1C [4-aminoantipyrine]
peroxidase assay, quinoneimine formation at 510 nm: oxidation of 4-aminoantipyrine (same electron donor than the one used in this study)
